Measurements published in patent US10064890B2, “Amorphous calcium carbonate for the treatment of calcium malabsorption and metabolic bone disorders” (AMORPHICAL LTD, priority 2011, dated 2018).
Structures can show the parent of a compound that is named as a salt. Marks after values point to notes of the source that are not given here.

Experiments:
[1] = Trial 1: calcium retention (intake minus feces and urine excretion); assay type: in vivo, Wistar rats; details: 34 h feces and urine collection, rats
Procedure: (§1) Twenty-six 2 month-old male Wistar rats, weighing 240±15 g, were orally administered with a single gelatin capsule containing either ACC (amorphous calcium carbonate) or CCC (crystalline calcium carbonate) intrinsically labeled with ^45Ca, followed by measurements of calcium fractional absorption in serum and calcium excretion.
Feces and urine were collected during the 17 h starvation phase during the acclimation period (baseline) and during the entire 34 h of the experiment to evaluate calcium. Samples of urine (500 μL) were transferred into plastic vials filled with scintillation liquid. Feces were dried overnight at 70° C. in an oven. The samples were ground in a mortar until fine homogenization. Feces samples (200 mg) were placed into 5 ml of 1 N NaOH solution (Gadot, Netanya, Israel), incubated for 3 hours at 80° C. and centrifuged for 10 minutes at 3,600 g. Duplicate samples of the supernatant (30 μL) were transferred into plastic vials containing scintillation liquid. Radioactivity of the urine and feces samples was measured using a liquid scintillation counter. Retention values were calculated by subtracting the radioactivity measured in the feces and urine from the given dose […].

[2] = test system: ovariectomized (OVX) rat model; assay: Trial 6: micro-CT of distal femur and 4th lumbar vertebra, ACC with or without alendronate; assay type: in vivo, Sprague Dawley rats; details: for SMI / TBPf / Tb. N / Tb. Sp / Tb. Th: OVX rats, 4 months treatment
Procedure: The inventors have conducted a study aiming to evaluate the effects of Amorphous Calcium Carbonate (ACC) on bone mineral density and bone fraction in metabolic bone disorders, and specifically osteoporosis as presented in the ovariectomized (OVX) rat model wherein the ACC is administered in combination with a standard medication for osteoporosis. In the present trial, five groups of rats were tested (4 OVX and 1 sham). Following operation, all rats were left untreated (fed with standard laboratory diet) to develop osteopenia for a period of 2 months. […] In addition, the animals were i.v injected (3 times/week) with either saline or 2 μg/kg alendronate (ALN) according to their group assignment, as described in Table 16.
A CCC mix containing 1% elemental calcium from crystalline calcium carbonate (Socal® Precipitated Calcium Carbonate), and an ACC mix containing 1% elemental calcium from stable amorphous calcium carbonate (containing 1% phosphoserine and 2% Citrate; Amorphical Ltd., Beer-Sheva, Israel).
Following 2 months, rats started treatment according to their assignment as described in Table 16 for a period of 4 months. […] Food consumption and body weight were recorded weekly (Table 17). At the end of the treatment period, all rats were sacrificed by CO2.

[3] = Trial 1: serum calcium pharmacokinetics after single oral capsule of 45Ca-labeled calcium carbonate; set-up: species or system Wistar rats; details: rat, in vivo
Procedure: as §1
All animals were treated according to the Israel Animal Welfare Act under the supervision of the Ben-Gurion University Animal Care and Use program. Fifty-one two month-old male Wistar rats (Harlan-Teklad, Jerusalem, Israel), weighing 240±15 g, were randomly housed in 12 stainless steel cages in an environmentally-controlled room (23° C. temperature, 12:12 h light:dark cycle). The rats were fed laboratory rat chow pellets adequate in nutrients ad libitum (Koffolk, Petah-Tikva, Israel) and had free access to water for 48 h. Four days before the beginning of the experiment, the regular diet was replaced with a low calcium diet containing 0.24±0.05% calcium (0.675±0.05% phosphate), specially prepared by mixing two food types containing, respectively, 0.01% calcium (0.3% phosphate; Harlan-Teklad) and 1% calcium (0.8% phosphate; Koffolk). The two food types were separately ground in a mill to yield two powders which were dry mixed in a ratio of 4:1, respectively, until fine homogenization. The homogenized powder was extruded to form new food pellets.
Seventeen hours prior to capsule administration, the rats were weighed and blood samples were taken (baseline). The rats were then placed into individual metabolic cages and deprived of food and water until 3 h post-capsule administration. Three and 24 h post-dosing, ˜10 g of low calcium food pellets (0.01% calcium; Harlan-Teklad) were given to each rat. Distilled water was allowed ad libitum starting three h post-capsule administration.
Each rat was lightly sedated for 30 seconds with isoflurane (Minrad) diluted 1:4 (v:v) with propylene glycol (BioLab). A single capsule containing a specific calcium carbonate preparation (i.e. CCC, ACC, or ACC-C; n=17 for each group) was administered intragastrically to each of the experimental rats using a stainless steel rat administration syringe (Harvard Apparatus).
Blood samples of […] were taken from each rat's tail vein 17 h prior to capsule administration (time 0) and 2, 3, 6, 10, 24 and 34 h post-administration. The blood samples were immediately centrifuged for 10 minutes at 3000 g using a tabletop centrifuge (Hettich Zentrifugen, Bach, Switzerland). Duplicate samples (30 μl) of the supernatant serum were transferred into plastic vials containing scintillation liquid (Zinsser Analytic, Berkshire, UK) and radioactivity was measured using a liquid scintillation counter (Tri-Carb 2100TR, PerkinElmer, Boston, Mass.). Plasma radioactivity from the given dose were normalized according to the measured radioactivity and specific radioactive dose that each rat received [(serum cpm×100)/(total cpm×sample volume)].
Non-compartmental analysis of an individual rat's calcium concentration versus time data was performed using WinNonLin 5.2 software (Pharsight, Mountain View, Calif.).

[4] = test system: ovariectomized (OVX) rat model; assay: Trial 7: micro-CT of distal femur and 4th lumbar vertebra; details: for Tb. N / Tb. Sp / Tb. Th: OVX rats, 90 days; for DA: sham group lower than the OVX group by / SMI: sham group lower than the OVX group by / TBPf: sham group lower than the OVX group by: 4th-lumbar vertebra, difference from sham; for trabecular bone region in μCT three-dimensional reconstruction: distal femur and 4th vertebra, FIG. 7, in comparison to the Sham; for trabecular femoral BMD: Sham group higher compared to the OVX group by: femur, difference from Sham
Procedure: In the study, five groups of rats were tested (4 ovariectomized and 1 sham). The OVX animals were fed with special food mixtures in the form of pellets from four different calcium sources: commercial crystalline calcium carbonate served as control (mix A), natural ACC (Gastrolith powder) (mix B), synthetic ACC (comprising trace amounts of phospho-serine) (mix C), and commercial crystalline calcium citrate (mix D). Sham group was administrated with the same food as the control. Pellets from all four mixtures contained ˜0.5% elemental calcium as confirmed by atomic absorption apparatus (Varian AA240, Palo Alto, Calif., USA) and described in Table 19 with no added vitamin D, except for the amounts found in the original food pellets (22 IU vitamin D/g).
For the administration of the different calcium sources, special food pellets containing were prepared. Low calcium rodent pellets containing 0.02% calcium (Rat chow #TD95027 Harlan Inc., Jerusalem, Israel) was finely grounded and separately mixed with four different calcium sources. […] Every mix was separately pelleted and kept in a sealed bag at room temperature.
Rats were randomly assigned and operated according to their assigned five groups: Sham (sham-Ovariectomized) fed with mix A, and four other groups were ovariectomized (OVX) using a bilateral dorsal approach according to Lasota and Danowska-Klonowska (2004) Rocz Akad Med Bialymst 49 Suppl 1:129-131, and divided to OVX Control (fed with mix A), OVX Gast (fed with mix B), OVX ACC (fed with mix C) and OVX Citrate (fed with mix D). Following operation, rats were provided a 7 days recovery period under the same conditions as the acclimation period, standard laboratory diet ad-libitum and de-ionized water containing 1.5 ml/400 ml Dipyrone (Vitamed Ltd, Binyamina, Israel), and 1 mg/kg Enrofloxacin (Buyer Ltd. Leverkusen, Germany).
At the end of the recovery period the rats were group-housed in 47 cages (2 rats/cage) according to the group assignment, under the same controlled room conditions as described above. The assigned supplemental pellets and de-ionized water were provided ad-libitum during the entire treatment period (90 days). […] For dynamic histomorphometric analysis fluorochrom dye Calcein (20 mg/kg body mass; Sigma-Aldrich, Israel) was IP injected to all rats at days 76 and 86. On day 90, rats were individually housed in metabolic cages and deprived from food and water for 18 h. Urine was collected from each metabolic funnel and was stored at −80° C. for future analysis of bone resorption biochemical marker at end of the experiment (Time 90). Immediately after urine sampling, serum samples were extracted for evaluation of formation biochemical marker of day 90 and stored in the same manner as described at day 0. All rats were sacrificed by CO2. Right femurs and 4th lumbar vertebras were dissected, wrapped with gaze pads soaked with saline buffer and kept in −80° C. for measurement of bone micro-CT scan. The 5th lumbar vertebras were stored in the same conditions as the right femurs for mechanical testing. Right tibias were dissected and placed immediately for 24 h at 4° C. in 3.7% formaldehyde solution (F1636, Sigma-Aldrich, Israel) for structural and dynamic histomorphometric measurements.
Trabecular and cortical bone microarchitecture of right femurs and 4th lumbar vertebras were analyzed using a μCT scanner (Skyscan 1174, Kartuizersweg Kontich, Belgium).

[5] = test system: ovariectomized (OVX) rat model; assay: Trial 7: mechanical strength of the 5th lumbar vertebra (compression test); assay type: in vivo, Sprague Dawley rats
Procedure: (§2) All rats were sacrificed by CO2.
Mechanical properties (Ultimate force, Energy to ultimate force, Toughness and Energy to yield) were obtained from the compression tests of 5th lumbar vertebral body (L5). Calculation of the material properties were performed by measuring the height of the vertebral body and the average of caudal and cranial diameters using a caliper. Cross sectional area (CSA) and bone volume (BV) were obtained by μCT scanning that covered the entire bone including both trabecular and cortical shell.

[6] = test system: ovariectomized (OVX) rat model; assay: Trial 7: histomorphometry of un-decalcified proximal tibia sections; assay type: in vivo, Sprague Dawley rats; details: for BFR/BS / MAR / MS/BS: dynamic (calcein); for BFR/BS / MAR / MS/BS / BV/TV / Tb. N / Tb. Sp / Tb. Th: OVX rats; for BV/TV / Tb. N / Tb. Sp / Tb. Th: structural, 90 days
Procedure: as §2
Right tibias were removed from the formaldehyde solution and dehydrated through an ethanol gradient, cleared using xylene (24250521, Bio-Lab Ltd. Haifa, Israel), and infiltrated with 80% methylmethacrylate (MMA; M5599, Sigma Aldrich, Rehovot, Israel)+20% dibutyl phthalate (DBP; 61-5062, Merck Ltd, Hohenbrunn, Germany) for 3 days at 4° C. Specimens were then transferred to MMA+DBP+Benozoyl peroxide (617008, Merck Ltd, Hohenbrunn, Germany) solution for another 6 days infiltration at 4° C. Following infiltration procedure, specimens were embedded in MMA+DBP+2.5% Benozoyl peroxide under a temperature gradient (from 38° C. to 50° C. over a period of 4 days). Mid-sagittal (4 μm) un-decalcified sections from each specimen were cut using a Lecia RM 2025 microtome (Lecia Instruments Ltd, Petach Tikva, Israel) connected to tungsten carbide knifes (Disposable blade; TC65, Rhenium Inc. Bet-Nekufa, Israel). Most sections were stained with McNeal's tetrachrome for structural histomorphometry. The remaining sections were left unstained for dynamic histomorphometry.
Measurement of both structural and dynamic histomorphometry of the proximal tibia metaphisyes were obtained using a semi-automatic analysis system (Bioquant OSTEO, ver. 7.20.10, BIOQUANT Image Analysis Corporation Nashville, USA) which is connected to a microscope (Nikon Optiphot 2, Kingston, England) equipped with fluorescent light source.

[7] = test system: ovariectomized (OVX) rat model; assay: Trial 7: bone turnover biochemical markers (urine DPD, serum OC) by EIA; assay type: in vivo, Sprague Dawley rats; details: day 90, OVX rats
Procedure: as §2
Serum Osteocalcin (OC) concentration was determined by EIA kit (#BT-490, Biomedical Technologies Inc. Stoughtone, USA) following a 1:10 serum dilution.
Urinary Deoxypyridinoline (DPD) concentration was determined by commercial EIA kit (#8007, Qudiel Inc. San Diego, USA) following a 1:50 dilution. DPD levels were normalized to Creatinine levels (#8009, Qudiel Inc. San Diego, USA).

In the case of `O=C([O-])[O-].[Ca+2]` [CCC, crystalline calcium carbonate], the “retention of the received dose” value [1] is reported as 48.5±1.3%, the SMI ([2]; 4th lumbar vertebra) is reported as 1.62 and the TBPf ([2]; 4th lumbar vertebra) is reported as 8.5 mm^−1. For the same compound, the “Tb. N” value ([2]; 4th lumbar vertebra) was 1.75 mm^−1, the “Tb. Sp” value ([2]; 4th lumbar vertebra) was 374 μm and the “Tb. Th” value ([2]; 4th lumbar vertebra) was 98.4 μm. For the same compound, the “trabecular bone region in μCT three-dimensional reconstruction” value (“trabecular bone region” for short) ([2]; distal femur and 4th vertebra, FIG. 5, compared to CCC / third group) was “lowest trabecular bone region”, the SMI ([2]; distal femur metaphysis) was 1.66 and the TBPf ([2]; distal femur metaphysis) was 7.6 mm^−1. The “Tb. N” value ([2]; distal femur metaphysis) was 1.5 mm^−1, the “Tb. Sp” value ([2]; distal femur metaphysis) was 682 μm and the “Tb. Th” value ([2]; distal femur metaphysis) was 110 μm. The “AUC∞” value [3] was 109.7 ± 6.4 ^a μg × h/mL, the Cmax [3] was 5.8 ± 0.07 ^a μg/mL and the Tmax [3] was 3.0 ± 0.3 ^a h.

For `O=C(O)CC(O)(CC(=O)O)C(=O)O` [Citrate, calcium citrate], the “Tb. N” value ([4]; 4th lumbar vertebra) was 1.59^b mm^−1, the “Tb. Sp” value ([4]; 4th lumbar vertebra) was 262^b μm and the “Tb. Th” value ([4]; 4th lumbar vertebra) was 86.6 μm. The “DA: sham group lower than the OVX group by” value [4] was 22%, the “SMI: sham group lower than the OVX group by” value [4] was 43% and the “TBPf: sham group lower than the OVX group by” value [4] was 91%. For the same compound, the “trabecular bone region” value [4] was “lowest trabecular bone region”, the “Tb. N” value ([4]; distal femur metaphysis) was 2.4^b mm^−1 and the “Tb. Sp” value ([4]; distal femur metaphysis) was 226^bd μm. The “Tb. Th” value ([4]; distal femur metaphysis) was 29.1^b μm, the “trabecular femoral BMD: Sham group higher compared to the OVX group by” value [4] was 63% and the “trabecular bone fraction and its number, Citrate compared with Control” value ([4]; micro-CT) was “No significant differences”. For the same compound, the “mechanical strength properties lower in comparison to Sham (average)” value [5] was 40%, the “trabecular bone fraction and condensed trabeculas values lower compared to the Sham (average)” value [6] was 55% and the “trabecular separation higher in comparison to Sham” value [6] was 148%. The “trabecular thickness higher compared to Control” value [6] was 13%, the “MS/BS lower from the ACC group” value ([6]; Citrate vs ACC) was 26% and the “bone formation rate lower from ACC” value ([6]; Citrate vs ACC) was 26%. The “MS/BS lower from the Gast group” value ([6]; Citrate vs Gast) was 29%, the “bone formation rate lower from Gast” value ([6]; Citrate vs Gast) was 28% and the BFR/BS [6] was 0.159^a μm^2/μm/day. The MAR [6] was 1.40 μm/day, the MS/BS [6] was 8.25^a % and the BV/TV [6] was 12.8^b %. For the same compound, the “Tb. N” value [6] was 2.3^b mm^−1, the “Tb. Sp” value [6] was 318^b μm and the “Tb. Th” value [6] was 53^b μm. The “DPD (urine deoxypyridinoline resorption marker)” value [7] was 43.55^e nmol/mmol Cr and the “OC (serum osteocalcin formation marker)” value [7] was 15.7^a ng/ml.

In the case of `O=C([O-])[O-].[Ca+2]` [Control, calcium carbonate], the “Tb. N” value ([4]; 4th lumbar vertebra) is reported as 1.57^b mm^−1, the “Tb. Sp” value ([4]; 4th lumbar vertebra) is reported as 254^b μm and the “Tb. Th” value ([4]; 4th lumbar vertebra) is reported as 87.5 μm. The “DA: sham group lower than the OVX group by” value [4] was 22%, the “SMI: sham group lower than the OVX group by” value [4] was 43% and the “TBPf: sham group lower than the OVX group by” value [4] was 91%. For the same compound, the “BV/TV and Tb.N lower on average in comparison to the Sham” value ([4]; distal femur) was 65%, the “trabecular bone region” value [4] was “lowest trabecular bone region” and the “Tb. N” value ([4]; distal femur metaphysis) was 2.2^b mm^−1. The “Tb. Sp” value ([4]; distal femur metaphysis) was 248^b μm, the “Tb. Th” value ([4]; distal femur metaphysis) was 29.0^b μm and the “trabecular femoral BMD: Sham group higher compared to the OVX group by” value [4] was 64%. The “BV/TV and Tb.N lower on average in comparison to the Sham” value ([4]; vertebra) was 60%, the “mechanical strength properties lower in comparison to Sham (average)” value [5] was 41% and the “trabecular bone fraction and condensed trabeculas values lower compared to the Sham (average)” value [6] was 55%. The “trabecular separation higher in comparison to Sham” value [6] was 130%, the BFR/BS [6] was 0.164^a μm^2/μm/day and the MAR [6] was 1.30 μm/day. For the same compound, the MS/BS [6] was 8.31^a %, the BV/TV [6] was 12.8^b % and the “Tb. N” value [6] was 2.5^b mm^−1. For the same compound, the “Tb. Sp” value [6] was 296^b μm, the “Tb. Th” value [6] was 47.1^a μm and the “DPD (urine deoxypyridinoline resorption marker)” value [7] was 36.65^be nmol/mmol Cr. The “OC (serum osteocalcin formation marker)” value [7] was 14.8^a ng/ml.

For amorphous calcium carbonate [ACC], the “AUC∞” value [3] was 134.5 ± 7.0 ^b μg × h/mL, the Cmax [3] was 8.1 ± 0.8 ^b μg/mL and the Tmax [3] was 2.8 ± 0.2 ^a h.
